In article PMC6418866 (Journal of the American Chemical Society, 2019):
Read-outs that look alike come from different tables or passages of the source.

Columns and labels:
[1] = molecular target: recombinant human GAA (rGAA, Myozyme) (Homo sapiens, UniProt P10253); test: In vitro inhibition of rGAA; conditions: IC50 ratio
[2] = molecular target: T1, recombinant human GBA (rGBA, Cerezyme) (Homo sapiens, UniProt P04062, R534H); conditions: read-out: Apparent IC50, rGBA; 3 h preincubation; cited from earlier work
T1 sequence (P04062 40-536 R534H): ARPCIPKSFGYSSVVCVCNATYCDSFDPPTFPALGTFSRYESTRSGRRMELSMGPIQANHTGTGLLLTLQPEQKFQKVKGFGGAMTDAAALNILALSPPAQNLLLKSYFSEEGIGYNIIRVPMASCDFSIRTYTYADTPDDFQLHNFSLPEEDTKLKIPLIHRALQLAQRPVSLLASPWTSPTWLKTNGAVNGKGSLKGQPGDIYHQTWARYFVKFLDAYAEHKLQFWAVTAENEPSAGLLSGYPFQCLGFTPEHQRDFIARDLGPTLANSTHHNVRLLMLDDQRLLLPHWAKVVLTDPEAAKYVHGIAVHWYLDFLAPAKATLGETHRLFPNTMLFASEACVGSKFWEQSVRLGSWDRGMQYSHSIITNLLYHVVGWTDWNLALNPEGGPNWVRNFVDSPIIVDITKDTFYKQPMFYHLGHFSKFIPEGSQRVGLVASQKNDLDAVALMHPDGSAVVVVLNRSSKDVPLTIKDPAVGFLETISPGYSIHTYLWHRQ

GBA [3] = conditions: cited from earlier work
GBA2 = molecular target: T2, GBA2 (Danio rerio, UniProt E7F5W0); test: In vivo GBA2 inactivation in zebrafish larvae, ABP labeling; conditions: 0.1–10 μM, 5 days in vivo
T2 sequence (E7F5W0 1-851): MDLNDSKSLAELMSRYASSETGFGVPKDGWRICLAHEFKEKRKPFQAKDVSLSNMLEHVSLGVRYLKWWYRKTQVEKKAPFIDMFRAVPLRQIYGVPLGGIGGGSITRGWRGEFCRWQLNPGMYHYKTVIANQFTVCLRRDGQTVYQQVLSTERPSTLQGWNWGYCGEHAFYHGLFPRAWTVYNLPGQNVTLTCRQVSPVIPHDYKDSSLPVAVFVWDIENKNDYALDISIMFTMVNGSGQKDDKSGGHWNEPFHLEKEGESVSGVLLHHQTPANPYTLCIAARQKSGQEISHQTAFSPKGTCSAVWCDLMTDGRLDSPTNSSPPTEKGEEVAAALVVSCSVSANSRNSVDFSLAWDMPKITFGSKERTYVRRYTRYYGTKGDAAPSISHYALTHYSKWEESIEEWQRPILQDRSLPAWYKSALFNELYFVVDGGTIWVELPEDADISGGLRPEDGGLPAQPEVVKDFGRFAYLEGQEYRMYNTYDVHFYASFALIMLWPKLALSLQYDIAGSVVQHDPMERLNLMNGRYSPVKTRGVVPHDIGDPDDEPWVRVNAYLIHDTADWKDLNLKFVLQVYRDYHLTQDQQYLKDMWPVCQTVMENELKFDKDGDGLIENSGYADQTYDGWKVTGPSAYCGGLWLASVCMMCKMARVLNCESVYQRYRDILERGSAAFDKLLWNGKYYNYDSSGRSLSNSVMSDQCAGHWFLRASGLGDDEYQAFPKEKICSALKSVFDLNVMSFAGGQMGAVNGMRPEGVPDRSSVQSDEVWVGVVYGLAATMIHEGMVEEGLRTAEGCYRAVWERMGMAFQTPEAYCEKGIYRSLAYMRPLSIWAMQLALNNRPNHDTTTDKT

[4] = system: lysosomal β-glucuronidase GUSB; test: In vivo GUSB labeling in zebrafish larvae, competitive ABPP; conditions: 0.1–10 μM, 5 days in vivo
GBA [5] = molecular target: T3, GBA (Danio rerio, UniProt E7EZM1); test: In vivo GBA inactivation in zebrafish larvae, quantified by ABP labeling; conditions: 0.1–10 μM, 5 days in vivo
T3 sequence (E7EZM1 20-518): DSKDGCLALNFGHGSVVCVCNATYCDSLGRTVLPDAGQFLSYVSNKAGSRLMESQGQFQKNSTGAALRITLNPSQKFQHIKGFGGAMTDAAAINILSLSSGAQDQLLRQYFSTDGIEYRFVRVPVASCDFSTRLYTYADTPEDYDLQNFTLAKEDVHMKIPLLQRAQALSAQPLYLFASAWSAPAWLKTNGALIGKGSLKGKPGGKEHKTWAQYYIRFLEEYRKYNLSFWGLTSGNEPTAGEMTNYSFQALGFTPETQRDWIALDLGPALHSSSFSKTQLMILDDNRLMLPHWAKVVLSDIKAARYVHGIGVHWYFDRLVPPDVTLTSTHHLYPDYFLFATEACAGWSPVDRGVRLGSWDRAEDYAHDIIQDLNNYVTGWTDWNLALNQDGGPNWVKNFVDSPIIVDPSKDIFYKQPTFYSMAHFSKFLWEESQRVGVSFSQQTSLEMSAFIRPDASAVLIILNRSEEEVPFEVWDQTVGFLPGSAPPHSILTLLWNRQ

[6] = molecular target: T1, recombinant human GBA (rGBA, Cerezyme); test: In vitro inhibition of rGBA, 4-MU fluorogenic substrate assay; conditions: Apparent IC50, in vitro rGBA, 3 h preincubation, 2 nM enzyme
GAA = molecular target: T4, GAA (Danio rerio, UniProt A0A8M1QKP5); test: In vivo GAA inactivation in zebrafish larvae, ABP labeling; conditions: 0.1–10 μM, 5 days in vivo
T4 sequence (A0A8M1QKP5 31-918): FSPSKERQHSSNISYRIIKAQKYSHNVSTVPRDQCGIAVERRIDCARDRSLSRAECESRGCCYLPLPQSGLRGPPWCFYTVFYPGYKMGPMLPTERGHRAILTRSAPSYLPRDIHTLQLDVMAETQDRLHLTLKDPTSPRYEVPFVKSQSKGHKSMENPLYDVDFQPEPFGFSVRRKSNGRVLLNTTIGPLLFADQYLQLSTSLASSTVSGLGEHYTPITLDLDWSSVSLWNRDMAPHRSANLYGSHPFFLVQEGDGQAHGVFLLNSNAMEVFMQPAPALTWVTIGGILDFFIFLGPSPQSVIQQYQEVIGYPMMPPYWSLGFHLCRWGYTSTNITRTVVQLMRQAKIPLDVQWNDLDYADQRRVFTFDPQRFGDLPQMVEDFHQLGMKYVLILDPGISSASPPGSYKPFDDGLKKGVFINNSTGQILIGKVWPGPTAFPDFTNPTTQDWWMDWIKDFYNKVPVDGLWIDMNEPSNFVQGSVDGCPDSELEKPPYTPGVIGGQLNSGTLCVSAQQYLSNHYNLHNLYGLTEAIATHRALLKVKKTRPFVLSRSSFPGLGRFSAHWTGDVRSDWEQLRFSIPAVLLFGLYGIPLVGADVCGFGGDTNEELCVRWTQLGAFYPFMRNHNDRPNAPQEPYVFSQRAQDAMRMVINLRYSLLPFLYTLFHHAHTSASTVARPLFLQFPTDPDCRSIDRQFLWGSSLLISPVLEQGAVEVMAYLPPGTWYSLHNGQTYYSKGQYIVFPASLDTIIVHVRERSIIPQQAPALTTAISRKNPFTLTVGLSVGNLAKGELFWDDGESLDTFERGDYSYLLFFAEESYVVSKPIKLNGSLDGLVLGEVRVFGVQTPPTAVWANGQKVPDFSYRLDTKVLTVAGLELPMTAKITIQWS

LPH = test: In vivo LPH labeling in zebrafish larvae, competitive ABPP; conditions: 0.1–10 μM, 5 days in vivo
ER α-glucosidase GANAB = test: In vivo GANAB labeling in zebrafish larvae, competitive ABPP; conditions: 0.1–10 μM, 5 days in vivo
[7] = system: glucosylsphingosine (GlcSph); test: Glucosylsphingosine levels in treated zebrafish embryos; format: in vivo, Danio rerio; conditions: 0.1–10 μM inhibitor, zebrafish embryos treated 5 days

## O[C@H]1[C@H](O)[C@@H](O)[C@@H]2O[C@@H]2[C@@H]1O (racemic) [CBE 1, conduritol B epoxide]
[1]
  Ratio (in vitro) GAA/GBA: 444
[2]
  IC50: 4280 nM

## OC[C@@H]1[C@@H](O)[C@H](O)[C@@H](O)[C@@H]2O[C@H]12 [CP 2, cyclophellitol]
GBA [3]
  GBA inhibition potency (in words): high nanomolar to micromolar

## O[C@@H]1[C@@H](O)[C@@H]2O[C@@H]2[C@H](Cn2cc(CCCOCc3ccc(-c4ccccc4)cc3)nn2)[C@H]1O [Compound 6, Biphenyl-cyclophellitol]
GBA2
  ABP labeling of GBA2 in lysates of treated zebrafish: not affected
[4]
  ABP labeling of GUSB in lysates of treated zebrafish: not affected
GBA [5]
  ABP labeling of GBA with ABP 8 and ABP 5 in lysates of treated zebrafish: abrogated
[6]
  IC50: 1 nM
GAA
  ABP labeling of GAA in lysates of treated zebrafish: not affected
LPH
  ABP labeling of LPH in lysates of treated zebrafish: not affected
ER α-glucosidase GANAB
  ABP labeling of GANAB in lysates of treated zebrafish: not affected
[7]
  Elevation in the level of glucosylsphingosine (GlcSph): 10–30 fold
